Measured values published in ChEMBL document CHEMBL5137086, “Discovery of 1-(Hetero)aryl-β-carboline Derivatives as IDO1/TDO Dual Inhibitors with Antidepressant Activity” (J Med Chem, 2022).
The source made the active and inactive calls. The calls are words filed in the database; no cut-off is given here.

How the values were obtained:
Mus musculus [1] = test: Antiinflammatory activity in LPS induced mouse assessed as reduction in IL-1beta expression in hippocampus at 20 mg/kg, ip pretreated with compound administered once daily for 2 days followed by LPS injection by qPCR analysis; type: functional, organism-based; details: time 2.0 day
BV-2 [2] = test: Antiinflammatory activity in LPS stimulated mouse BV-2 cells assessed as reduction in COX2 expression at 0.5 to 2 uM pretreated with compound for 1 hr followed by LPS stimulation and measured after 24 hrs by qRT-PCR analysis; type: functional, cell-based; details: dose 0.5-2 µM, time 25.0 hrs
[3] = Acute toxicity in mouse assessed as change in body weight at 10 to 20 mg/kg, ip administered once daily and measured every day for 20 days; type: organism-based; details: in vivo, 480 h, dose 10-20 mg/kg, time 20 day
[4] = MRT (0 to infinity) in C57BL/6J mouse at 20 mg/kg, ip measured up to 24 hrs by LC-MS/MS analysis; type: ADME, organism-based; details: in vivo
Mus musculus [5] = test: Antiinflammatory activity in LPS induced mouse assessed as rescue of increase in IDO1 expression in activated microglia at 20 mg/kg, ip pretreated with compound administered once daily for 2 days followed by LPS injection by immunofluorescence analysis; type: functional, organism-based; details: time 2.0 day
[6] = target: Indoleamine 2,3-dioxygenase 1 (Homo sapiens, UniProt P14902); test: Inhibition of IDO1 (unknown origin) assessed as reduction in kynurenine production using L-tryptophan as substrate at 50 uM incubated for 1 hr by absorbance based microplate reader analysis relative to control
Indoleamine 2,3-dioxygenase 1, sequence (P14902 whole entry, looked up): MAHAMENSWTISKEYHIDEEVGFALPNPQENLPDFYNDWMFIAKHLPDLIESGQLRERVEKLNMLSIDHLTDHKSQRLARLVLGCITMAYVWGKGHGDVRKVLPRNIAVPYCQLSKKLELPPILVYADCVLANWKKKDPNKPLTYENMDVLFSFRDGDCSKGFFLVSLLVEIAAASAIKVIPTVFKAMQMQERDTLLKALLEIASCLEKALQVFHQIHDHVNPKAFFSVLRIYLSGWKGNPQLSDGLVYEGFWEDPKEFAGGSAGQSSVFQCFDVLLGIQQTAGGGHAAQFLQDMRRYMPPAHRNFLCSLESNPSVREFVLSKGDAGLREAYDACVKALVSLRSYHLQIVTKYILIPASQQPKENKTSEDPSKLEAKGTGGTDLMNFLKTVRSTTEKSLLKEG

[7] = MRT (0 to 24 hrs) in C57BL/6J mouse at 20 mg/kg, iv measured up to 24 hrs by LC-MS/MS analysis; type: ADME, organism-based; details: in vivo
[8] = target: Tryptophan 2,3-dioxygenase (Homo sapiens, UniProt P48775); test: Inhibition of TDO (unknown origin) assessed as reduction in N-formylkynurenine formation using L-tryptophan as substrate at 50 uM incubated for 75 mins by UV absorbance based analysis relative to control
Tryptophan 2,3-dioxygenase, sequence (P48775 whole entry, looked up): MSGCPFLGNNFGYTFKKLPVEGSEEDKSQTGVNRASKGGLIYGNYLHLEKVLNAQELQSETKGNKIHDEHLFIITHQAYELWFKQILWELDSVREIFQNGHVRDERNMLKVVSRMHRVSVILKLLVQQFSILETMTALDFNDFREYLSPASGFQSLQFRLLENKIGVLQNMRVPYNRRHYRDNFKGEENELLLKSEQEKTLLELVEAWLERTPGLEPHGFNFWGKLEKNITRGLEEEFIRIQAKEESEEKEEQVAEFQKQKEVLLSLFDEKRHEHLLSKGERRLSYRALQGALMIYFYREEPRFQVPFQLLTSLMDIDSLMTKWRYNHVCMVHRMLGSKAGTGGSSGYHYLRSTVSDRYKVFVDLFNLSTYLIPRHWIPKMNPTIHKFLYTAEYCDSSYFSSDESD

[9] = AUC (0 to 24 hrs) in C57BL/6J mouse at 20 mg/kg, iv measured up to 24 hrs by LC-MS/MS analysis; type: ADME, organism-based; design: dose 20 mg/kg, time < 24 hrs, route iv; details: in vivo
[10] = AUC (0 to infinity) in C57BL/6J mouse at 20 mg/kg, iv measured up to 24 hrs by LC-MS/MS analysis; type: ADME, organism-based; design: dose 20 mg/kg, time < 24 hrs, route iv; details: in vivo
BV-2 [11] = test: Antiinflammatory activity in LPS stimulated mouse BV-2 cells assessed as reduction in iNOS expression at 0.5 to 2 uM pretreated with compound for 1 hr followed by LPS stimulation and measured after 24 hrs by qRT-PCR analysis; type: functional, cell-based; details: dose 0.5-2 µM, time 25.0 hrs

Compound: c1ccc2c(c1)[nH]c1c(-c3c[nH]cn3)nccc12
- Activity (Mus musculus [1]): Active
- Activity (BV-2 [2]): Active
- Activity [3]: Non-Toxic
- MRT inf [4]: 1.04 h
- Activity (Mus musculus [5]): Active
- inhibition [6]: 98%
- MRT last at 24 h [7]: 1.81 h
- inhibition [8]: 92%
- AUC(0-t) at 24 h [9]: 8550 ng·h/mL
- AUC(0-inf) [10]: 8560 ng·h/mL
- Activity (BV-2 [11]): Active
